From patent US20260198493A1, “HYDRAZIDE COMPOUND AND AGRICULTURAL/HORTICULTURAL FUNGICIDE” (Nippon Soda Co., Ltd., priority 2022, published 2026)

Assays:
Fusarium graminearum = assay: microbe, parasite or virus in culture; format: cell-based; details: 96 h, read-out: growth inhibition ratio
Colletotrichum acutatum = assay: Fungicidal effect test against fungi causing apple anthracnose; details: 96 h, read-out: growth inhibition ratio
Glomerella cingulata = assay: Fungicidal effect test against fungi causing grape ripe rot disease; details: Colletotrichum gloeosporioides, 72 h, read-out: growth inhibition ratio
Botrytis cinerea [1] = format: cell-based; details: 120 h, 25 ppm by volume, Vogel medium, 20° C., five days, dark, read-out: growth inhibition ratio
Botrytis cinerea [2] = assay: Control test of cucumber gray mold (sprayed young cucumber seedlings); format: in vivo; details: 96 h, four days after inoculation; for pest or weed control at 25 ppm: 25 ppm by mass spray; for pest or weed control at 125 ppm: 125 ppm by mass spray
Experimental: Then, the drug liquid was sprayed onto young cucumber seedlings cultivated in a nursery pot (variety “Jihai”-based, cotyledon stage), and then air-dried. […] They were left still in a moist room at 20° C. Four days after inoculation, leaves of the young cucumber seedlings were visually observed, and the control value was calculated from the lesion area ratio in accordance with the following equation. [formula]

[3] = system: Erysiphe graminis f.sp.tritici; assay: Control test of wheat powdery mildew disease (sprayed young wheat seedlings); format: in vivo; details: Blumeria graminis, 144 h, 125 ppm by mass spray, six days after inoculation
Venturia inaequalis = assay: Control test of apple scab disease (sprayed young apple seedlings); format: in vivo; details: 125 ppm by mass spray, 12 to 14 days after inoculation
Experimental: [formula] […] Then, the drug liquid was sprayed onto young apple seedlings cultivated in a nursery pot (variety “Orin”, three-to four-leaf stage), and then air-dried. Thereafter, conidiospores of fungi causing apple scab disease (Venturia inaequalis) were inoculated thereon (treated area). As a control, the conidiospores were inoculated in a similar manner to the above on young apple seedlings unsprayed with the drug liquid (untreated area). They were left still at 20° C. in a moist room with light and dark cycles repeated every 12 hours. 12 Days to 14 days after inoculation, leaves of young apple seedlings were visually observed, and the control value was calculated from the lesion area ratio in accordance with the equation used in the control test of cucumber gray mold.

Cc1ccc(CNNC(=O)c2cc(C)nnc2Oc2cccc(C3CC3)c2F)c(C)c1 [b-1]
≥ 75%: inhibition of growth at 25 ppm (Fusarium graminearum) | inhibition of growth at 25 ppm (Colletotrichum acutatum) | inhibition of growth at 25 ppm (Glomerella cingulata) | inhibition of growth at 25 ppm (Botrytis cinerea [1])

Cc1cc(C(=O)NNCc2ccc(Cl)cc2Cl)c(Oc2cccc(C3CC3)c2F)nn1 [b-7]
≥ 75%: inhibition of growth at 25 ppm (Fusarium graminearum) | inhibition of growth at 25 ppm (Colletotrichum acutatum) | inhibition of growth at 25 ppm (Glomerella cingulata) | inhibition of growth at 25 ppm (Botrytis cinerea [1])

Cc1ccc(CNNC(=O)c2cc(C)ncc2Oc2cccc(C3CC3)c2F)c(C)c1 [b-8]
≥ 75%: inhibition of growth at 25 ppm (Fusarium graminearum) | inhibition of growth at 25 ppm (Colletotrichum acutatum) | inhibition of growth at 25 ppm (Glomerella cingulata) | inhibition of growth at 25 ppm (Botrytis cinerea [1])

COC(=O)N(Cc1ccc(OC)cc1OC)NC(=O)c1cc(C)ncc1Oc1cccc(Br)c1 [b-87]
≥ 75%: inhibition of growth at 25 ppm (Fusarium graminearum) | inhibition of growth at 25 ppm (Colletotrichum acutatum) | inhibition of growth at 25 ppm (Glomerella cingulata) | inhibition of growth at 25 ppm (Botrytis cinerea [1])

COC(=O)N(Cc1ccc(C#N)cc1C)NC(=O)c1cc(C)ncc1Oc1cccc(C2CC2)c1F [b-128]
≥ 75%: inhibition of growth at 25 ppm (Fusarium graminearum) | inhibition of growth at 25 ppm (Colletotrichum acutatum) | inhibition of growth at 25 ppm (Glomerella cingulata) | inhibition of growth at 25 ppm (Botrytis cinerea [1])

COC(=O)N(Cc1ccc(C)cc1C)NC(=O)c1cc(C)nnc1Oc1ccccc1 [b-143]
≥ 75%: inhibition of growth at 25 ppm (Fusarium graminearum) | inhibition of growth at 25 ppm (Colletotrichum acutatum) | inhibition of growth at 25 ppm (Glomerella cingulata) | inhibition of growth at 25 ppm (Botrytis cinerea [1])

COC(=O)N(Cc1ccc(OC)cc1C)NC(=O)c1ccncc1Oc1cccc(C2CC2)c1F [b-151]
≥ 75%: inhibition of growth at 25 ppm (Colletotrichum acutatum) | pest or weed control at 25 ppm (Botrytis cinerea [2]) | pest or weed control at 125 ppm (Botrytis cinerea [2]) | pest or weed control at 125 ppm [3] | inhibition of growth at 25 ppm (Glomerella cingulata) | pest or weed control at 125 ppm (Venturia inaequalis) | inhibition of growth at 25 ppm (Botrytis cinerea [1])

COC(=O)N(Cc1ccc(OC(F)(F)F)cc1C)NC(=O)c1cc(C)nnc1Oc1cccc(C2CC2)c1F [b-158]
≥ 75%: inhibition of growth at 25 ppm (Colletotrichum acutatum) | pest or weed control at 25 ppm (Botrytis cinerea [2]) | pest or weed control at 125 ppm (Botrytis cinerea [2]) | pest or weed control at 125 ppm [3] | inhibition of growth at 25 ppm (Glomerella cingulata) | pest or weed control at 125 ppm (Venturia inaequalis) | inhibition of growth at 25 ppm (Botrytis cinerea [1])

COC(=O)N(Cc1cccc(C)c1)NC(=O)c1cc(C)nnc1Oc1cccc(C2CC2)c1F [b-159]
≥ 75%: inhibition of growth at 25 ppm (Colletotrichum acutatum) | pest or weed control at 25 ppm (Botrytis cinerea [2]) | pest or weed control at 125 ppm (Botrytis cinerea [2]) | pest or weed control at 125 ppm [3] | inhibition of growth at 25 ppm (Glomerella cingulata) | pest or weed control at 125 ppm (Venturia inaequalis) | inhibition of growth at 25 ppm (Botrytis cinerea [1])

COC(=O)N(Cc1ccc(C2CC2)cc1)NC(=O)c1cc(C)nnc1Oc1cccc(C2CC2)c1F [b-163]
≥ 75%: inhibition of growth at 25 ppm (Colletotrichum acutatum) | pest or weed control at 25 ppm (Botrytis cinerea [2]) | pest or weed control at 125 ppm (Botrytis cinerea [2]) | pest or weed control at 125 ppm [3] | inhibition of growth at 25 ppm (Glomerella cingulata) | pest or weed control at 125 ppm (Venturia inaequalis) | inhibition of growth at 25 ppm (Botrytis cinerea [1])

COC(=O)N(Cc1ccc(OC)cc1C)NC(=O)c1cc(C#N)ncc1Oc1cccc(C2CC2)c1F [b-167]
≥ 75%: inhibition of growth at 25 ppm (Fusarium graminearum) | inhibition of growth at 25 ppm (Colletotrichum acutatum) | inhibition of growth at 25 ppm (Glomerella cingulata) | inhibition of growth at 25 ppm (Botrytis cinerea [1])

COC(=O)N(Cc1ccc(C)cc1C)NC(=O)c1c(Oc2cccc(Cl)c2F)nnc2c1CCC2 [b-175]
≥ 75%: inhibition of growth at 25 ppm (Fusarium graminearum) | inhibition of growth at 25 ppm (Colletotrichum acutatum) | inhibition of growth at 25 ppm (Glomerella cingulata) | inhibition of growth at 25 ppm (Botrytis cinerea [1])

Cc1ccc(CN(NC(=O)c2cc(C)nnc2Oc2cccc(C3CC3)c2F)C(=O)OCc2ccccc2)c(C)c1 [b-182]
≥ 75%: inhibition of growth at 25 ppm (Colletotrichum acutatum) | pest or weed control at 25 ppm (Botrytis cinerea [2]) | pest or weed control at 125 ppm (Botrytis cinerea [2]) | pest or weed control at 125 ppm [3] | inhibition of growth at 25 ppm (Glomerella cingulata) | pest or weed control at 125 ppm (Venturia inaequalis) | inhibition of growth at 25 ppm (Botrytis cinerea [1])

Cc1ccc(CN(NC(=O)c2cc(C)nnc2Oc2cccc(C3CC3)c2F)C(=O)OCC2CC2)c(C)c1 [b-183]
≥ 75%: inhibition of growth at 25 ppm (Colletotrichum acutatum) | pest or weed control at 25 ppm (Botrytis cinerea [2]) | pest or weed control at 125 ppm (Botrytis cinerea [2]) | pest or weed control at 125 ppm [3] | inhibition of growth at 25 ppm (Glomerella cingulata) | pest or weed control at 125 ppm (Venturia inaequalis) | inhibition of growth at 25 ppm (Botrytis cinerea [1])

COC(=O)N(Cc1ccc(C)cc1C)NC(=O)c1ccnnc1Oc1cccc(C2CC2)c1F [b-189]
≥ 75%: inhibition of growth at 25 ppm (Colletotrichum acutatum) | pest or weed control at 25 ppm (Botrytis cinerea [2]) | pest or weed control at 125 ppm (Botrytis cinerea [2]) | pest or weed control at 125 ppm [3] | inhibition of growth at 25 ppm (Glomerella cingulata) | pest or weed control at 125 ppm (Venturia inaequalis) | inhibition of growth at 25 ppm (Botrytis cinerea [1])

COC(=O)N(Cc1ccc(C)cc1C)NC(=O)c1ccnnc1Oc1cccc(Cl)c1F [b-190]
≥ 75%: inhibition of growth at 25 ppm (Colletotrichum acutatum) | pest or weed control at 25 ppm (Botrytis cinerea [2]) | pest or weed control at 125 ppm (Botrytis cinerea [2]) | pest or weed control at 125 ppm [3] | inhibition of growth at 25 ppm (Glomerella cingulata) | pest or weed control at 125 ppm (Venturia inaequalis) | inhibition of growth at 25 ppm (Botrytis cinerea [1])

COC(=O)N(Cc1ccc(OC)cc1C)NC(=O)c1c(C)cnnc1Oc1cccc(C2CC2)c1F [b-192]
≥ 75%: inhibition of growth at 25 ppm (Colletotrichum acutatum) | pest or weed control at 25 ppm (Botrytis cinerea [2]) | pest or weed control at 125 ppm (Botrytis cinerea [2]) | pest or weed control at 125 ppm [3] | inhibition of growth at 25 ppm (Glomerella cingulata) | pest or weed control at 125 ppm (Venturia inaequalis) | inhibition of growth at 25 ppm (Botrytis cinerea [1])

COC(=O)N(Cc1ccc(C)cc1C)NC(=O)c1cc(SC)ncc1Oc1cccc(C2CC2)c1F [b-194]
≥ 75%: inhibition of growth at 25 ppm (Fusarium graminearum) | inhibition of growth at 25 ppm (Colletotrichum acutatum) | inhibition of growth at 25 ppm (Glomerella cingulata) | inhibition of growth at 25 ppm (Botrytis cinerea [1])

COC(=O)N(Cc1ccc(OC)cc1C)NC(=O)c1c(F)cncc1Oc1cccc(C2CC2)c1F [b-201]
≥ 75%: inhibition of growth at 25 ppm (Colletotrichum acutatum) | pest or weed control at 25 ppm (Botrytis cinerea [2]) | pest or weed control at 125 ppm (Botrytis cinerea [2]) | pest or weed control at 125 ppm [3] | inhibition of growth at 25 ppm (Glomerella cingulata) | pest or weed control at 125 ppm (Venturia inaequalis) | inhibition of growth at 25 ppm (Botrytis cinerea [1])

COC(=O)N(Cc1ccc(C)cc1C)NC(=O)c1c(Cl)cncc1Oc1cccc(C2CC2)c1F [b-205]
≥ 75%: inhibition of growth at 25 ppm (Colletotrichum acutatum) | pest or weed control at 125 ppm (Botrytis cinerea [2]) | pest or weed control at 125 ppm [3] | inhibition of growth at 25 ppm (Glomerella cingulata) | pest or weed control at 125 ppm (Venturia inaequalis) | inhibition of growth at 25 ppm (Botrytis cinerea [1])

COC(=O)N(Cc1ccc(OC)cc1C)NC(=O)c1c(Cl)cncc1Oc1cccc(C2CC2)c1F [b-206]
≥ 75%: inhibition of growth at 25 ppm (Colletotrichum acutatum) | pest or weed control at 25 ppm (Botrytis cinerea [2]) | pest or weed control at 125 ppm (Botrytis cinerea [2]) | pest or weed control at 125 ppm [3] | inhibition of growth at 25 ppm (Glomerella cingulata) | pest or weed control at 125 ppm (Venturia inaequalis) | inhibition of growth at 25 ppm (Botrytis cinerea [1])

COC(=O)N(Cc1ccc(C)cc1C)NC(=O)c1cc(C)nnc1Oc1cccc(Cl)n1 [b-215]
≥ 75%: inhibition of growth at 25 ppm (Fusarium graminearum) | inhibition of growth at 25 ppm (Colletotrichum acutatum) | inhibition of growth at 25 ppm (Glomerella cingulata) | inhibition of growth at 25 ppm (Botrytis cinerea [1])

COC(=O)N(Cc1ccc(C)cc1C)/N=C(\OC)c1cc(C)nnc1Oc1cccc(Cl)c1F [b-220, Methyl (Z)-2-((3-(3-chloro-2-fluorophenoxy)-6-methylpyridazin-4-yl)(methoxy)methylene)-1-(2,4-dimethylbenzyl)hydrazine-1-carboxylate]
≥ 75%: inhibition of growth at 25 ppm (Colletotrichum acutatum) | pest or weed control at 125 ppm (Botrytis cinerea [2]) | pest or weed control at 125 ppm [3] | inhibition of growth at 25 ppm (Glomerella cingulata) | pest or weed control at 125 ppm (Venturia inaequalis) | inhibition of growth at 25 ppm (Botrytis cinerea [1])
